Patent EP2198878A1, “Polypeptide bombesin antagonists” (University Of Miami, priority 2008, dated 2010)
Peptide text beside a SMILES is read from it. * marks the point of attachment. Leuψ(CH2N)ThzNH2 = CC(C)C[C@@H](CN1CSC[C@H]1C(N)=O)N*; Hydrocinnamoyl = O=C(CCc1ccccc1)*

Test system: Human SK-Hep-1 cancers
Test: SK-Hep-1 human hepatocellular carcinoma xenograft in nude mice
Format: in vivo, mouse
Conditions: at therapeutic doses
Method: Human SK-Hep-1 cancers were transplanted sc. into both flank areas of female nude mice. The treatment started 47 days after transplantation as follows: Group 1: Control; Group 2: Peptide 14, 20 µg/day;. There were 8 animals in each group. The substances were dissolved in 0.1% dimethyl sulfoxide (DMSO) and diluted with 10% propylene glycol in water. Amounts of 0.1 ml of the solutions were injected once daily sc. The controls received vehicle only. Tumors and body weights were measured weekly and tumor volume was calculated. The experiment was terminated on day 135.

SMILES: CC(C)C[C@@H](CN1CSC[C@H]1C(N)=O)NC(=O)[C@H](Cc1c[nH]cn1)NC(=O)CNC(=O)[C@@H](NC(=O)[C@H](C)NC(=O)[C@H](Cc1c[nH]c2ccccc12)NC(=O)[C@H](CCC(N)=O)NC(=O)CCc1ccccc1)C(C)C [Peptide 14, Hca-Gln-Trp-Ala-Val-Gly-His-Leu-ψ-Tac-NH2] (Hydrocinnamoyl-QWAVGH-{Leuψ(CH2N)ThzNH2})
- toxic effects: no toxic effects
